Experimental data from PMC4450870 (Pain, 2015).

Legend:
Assay type in all cases: cell-based
KCNQ2 [1] = target: KCNQ2 (Rattus norvegicus, UniProt O88943, R198A); test: whole-cell voltage clamp, CHO cells
KCNQ2/KCNQ3 = KCNQ2/KCNQ3 (Rattus norvegicus, UniProt O88943+O88944); test: whole-cell patch clamp, transfected CHO cells; settings: activator, −10 mV test potential, room temperature, bath pH 7.4
KCNQ2 [2] = target: KCNQ2 (Rattus norvegicus, UniProt O88943); test: whole-cell voltage clamp, CHO cells
KCNQ2 (Rattus norvegicus, UniProt O88943), sequence (O88943 whole entry): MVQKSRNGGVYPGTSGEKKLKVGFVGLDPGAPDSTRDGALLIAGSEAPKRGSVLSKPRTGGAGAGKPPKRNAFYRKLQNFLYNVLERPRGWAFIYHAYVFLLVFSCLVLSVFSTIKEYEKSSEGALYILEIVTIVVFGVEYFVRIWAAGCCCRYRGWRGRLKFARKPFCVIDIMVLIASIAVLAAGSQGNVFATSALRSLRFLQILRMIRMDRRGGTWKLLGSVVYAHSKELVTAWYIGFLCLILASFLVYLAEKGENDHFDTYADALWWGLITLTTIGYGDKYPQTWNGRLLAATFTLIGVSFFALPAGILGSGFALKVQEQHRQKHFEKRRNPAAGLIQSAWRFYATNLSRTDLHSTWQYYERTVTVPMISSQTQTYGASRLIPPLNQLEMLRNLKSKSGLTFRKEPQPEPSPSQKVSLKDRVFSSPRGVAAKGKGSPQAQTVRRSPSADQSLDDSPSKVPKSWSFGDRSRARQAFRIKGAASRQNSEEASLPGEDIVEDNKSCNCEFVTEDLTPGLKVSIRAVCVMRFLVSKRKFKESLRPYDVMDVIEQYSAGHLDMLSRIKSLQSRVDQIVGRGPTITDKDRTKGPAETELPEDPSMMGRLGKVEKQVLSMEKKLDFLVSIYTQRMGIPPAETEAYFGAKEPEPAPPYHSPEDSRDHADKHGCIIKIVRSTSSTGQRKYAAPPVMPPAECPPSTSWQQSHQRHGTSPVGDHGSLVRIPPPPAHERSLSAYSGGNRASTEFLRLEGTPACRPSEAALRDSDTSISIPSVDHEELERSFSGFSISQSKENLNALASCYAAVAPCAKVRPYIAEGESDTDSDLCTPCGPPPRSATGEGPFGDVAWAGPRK

KCNQ2 (Rattus norvegicus, UniProt O88943, R198A), sequence (O88943 whole entry R198A): as the sequence (O88943 whole entry) above, with R198A counted along it
KCNQ2/KCNQ3, sequence (O88943 whole entry): as the sequence (O88943 whole entry) above
KCNQ2/KCNQ3, sequence (O88944 whole entry): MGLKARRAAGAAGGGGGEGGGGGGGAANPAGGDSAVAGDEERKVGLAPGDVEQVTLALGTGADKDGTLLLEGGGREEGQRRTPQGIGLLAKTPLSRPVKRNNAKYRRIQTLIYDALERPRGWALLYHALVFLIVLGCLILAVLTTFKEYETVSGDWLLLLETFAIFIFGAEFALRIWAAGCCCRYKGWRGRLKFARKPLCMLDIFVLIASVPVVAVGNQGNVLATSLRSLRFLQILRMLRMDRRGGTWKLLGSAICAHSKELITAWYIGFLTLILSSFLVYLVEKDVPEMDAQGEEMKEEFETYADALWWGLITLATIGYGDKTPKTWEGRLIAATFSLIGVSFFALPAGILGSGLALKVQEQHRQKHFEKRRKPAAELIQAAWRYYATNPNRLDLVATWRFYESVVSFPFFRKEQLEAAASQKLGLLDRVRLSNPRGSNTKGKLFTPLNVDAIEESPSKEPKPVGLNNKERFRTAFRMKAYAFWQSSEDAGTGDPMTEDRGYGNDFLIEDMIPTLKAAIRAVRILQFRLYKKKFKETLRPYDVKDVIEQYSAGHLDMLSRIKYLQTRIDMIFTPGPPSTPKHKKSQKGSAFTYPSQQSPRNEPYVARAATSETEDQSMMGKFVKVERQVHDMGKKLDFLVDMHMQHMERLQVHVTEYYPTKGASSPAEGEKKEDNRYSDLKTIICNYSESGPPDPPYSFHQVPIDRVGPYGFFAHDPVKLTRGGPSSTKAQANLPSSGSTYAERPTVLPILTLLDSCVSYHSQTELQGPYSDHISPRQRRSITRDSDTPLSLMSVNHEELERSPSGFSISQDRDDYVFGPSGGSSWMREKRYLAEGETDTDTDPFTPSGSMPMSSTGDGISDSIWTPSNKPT

EC50 (KCNQ2 [1]): 28.2 ± 1.32 µM | fold increase of outward current at 10 μM (KCNQ2/KCNQ3): ~ 1.64 ± 0.08 fold | EC50 (KCNQ2 [2]): 4.32 ± 1.4 µM
SMILES: CCc1oc2ccccc2c1C(=O)c1cc(Br)c(O)c(Br)c1 [benzbromarone]
